We go through one compound from patent US20250025439A1, “DERIVATIVES OF NIFUROXAZIDE FOR USE IN THE TREATMENT OF MITOCHONDRIAL DISORDERS AND NEURODEGENERATIVE DISEASES” (priority 2021, published 2025).

Common to all, as to type: cell-based, human
Assay [1] concerns CHCHD10^S59L/+ fibroblasts. As to the kind of experiment: Mitochondrial network analysis after KIF5B siRNA transfection. The note with it: patient cells, NFX 5 μM, 72 h. The procedure: Cells were incubated with MitoTracker red (Invitrogen) as previously described (Genin et al., EMBO Mol. Med., 2016, 8, 58-72). Fibroblasts were plated on a glass slide in a 60 mm dish. For the mitochondrial staining, the fibroblasts were incubated with MitoTracker Red (Invitrogen) (100 nM) during 15 minutes at 37° C. Then the medium was replaced by fresh medium for two hours at 37° C. The cells were fixed using Paraformaldehyde (Electron Microscopy Science) (4%) diluted in medium, 20 minutes at 37° C. The cells were then washed with PBS and mounted with Prolong Gold Antifade Reagent (Molecular Probes). The slides were analysed using a confocal microscope (Zeiss LSM 880). […] The images were deconvoluted with Huygens Essential Software™ (Scientific Volume Imaging) using a theoretically calculated point spread function (PSF) for each of the dyes. All selected images were iteratively deconvolved with maximum iterations scored 40 and a quality threshold at 0.05. The deconvolved images were used for quantitative mitochondrial network analysis with Huygens Essentiel Software™ with the following standardised set of parameters: threshold=15% and seed=10% for each cell types and garbage=10. The quantitative data were further analysed in Microsoft Excel and GraphPad Prism 8 (GraphPad Software). Mitochondrial network length was quantified for 30 randomly-selected individual cells. […]

The subject of assay [2] is iPSC-derived motor neurons. In words: Caspase activity measurement (DEVDase) in iPSC-derived motor neurons. The note with it: glutamate 100 μM + NFX 0.5 μM. As for the experimental part: iPSC clones were generated from human fibroblasts as previously described (Genin et al., Acta Neuropathol., 2019, 138, 123-145). Motor neurons were differentiated from iPSC using previously described and validated protocols with some modifications. Briefly, iPSC clones were detached by Accutase treatment to form small clusters. Cells were transferred in Neuronal basic medium (DMEM/F12 plus Neurobasal medium with N2 and B27 supplement without vitamin A) supplemented with 40 μM SB431542 (Tocris Bioscience), 0.2 μM LDN-193189 (Stemgent), 3 μM CHIR99021 (Tocris Bioscience), and 5 μM Y-27632 (Merck Millipore) to induce EB formation. From day 3 on, 0.1 μM retinoic acid (Sigma) and 500 nM SAG (Merck Millipore) were added to the neuronal basic medium and medium was changed every 2 days. From day 9 on, BDNF (10 ng/mL, Miltenyi Biotec) and GDNF (10 ng/ml, Miltenyi Biotec) and DAPT (20 μM, Tocris Bioscience) were added. On day 10, floating clusters were dissociated into single cells using 0.05% trypsin (Gibco™). […] Cells were treated either with 0.5 μM Staurosporine (Sigma) for 24 h or 50-100 μM glutamate (Sigma) for 48 h and caspase activation was analyzed by DEVDase activity measurement as previously described (Villa et al., 2017). […] Caspase activity was measured using a fluoroscan at 460 nm, and specific activity was expressed as the change in absorbance per minute per milligram protein.

The subject of another assay is patient motor neurons. In words: Electron microscopy of mitochondrial morphology in iPSC-derived motor neurons. The settings on record: NFX 0.5 μM, 72 h. The procedure:
Cells were seeded on 24 wells/plate, fixed with 1.6% glutaraldehyde in 0.1 M cacodylate buffer (pH 7.4) for 2 hours, rinsed and postfixed in 1% osmium tetroxide and 1% potassium ferrocyanide in 0.1 M cacodylate buffer before to processed for ultrastructure as previously described (Bannwarth et al., Brain, 2014, 137, 2329-2345). The protocol for contrasting sections was slightly modified, using a 5% Lanthanide salt solution (a mixture of Gadolinium acetate and Samarium acetate) for 7 minutes instead of uranium acetate. The cells were examined under a JEOL 1400 transmission electron microscope. The ultrastructure of mitochondria was classified in three categories. Normal: the mitochondria have numerous, parallel and well organized cristae. Intermediary: the mitochondria have less cristae, they show few round or swollen cristae or have a mild disorganisation. Abnormal: the mitochondria have swollen, disorganized or no cristae. More than 100 mitochondria were classified per condition. iPSC clones were generated from human fibroblasts as previously described (Genin et al., Acta Neuropathol., 2019, 138, 123-145). Motor neurons were differentiated from iPSC using previously described and validated protocols with some modifications. Briefly, iPSC clones were detached by Accutase treatment to form small clusters. […]

Consider `O=C(N/N=C/c1ccc([N+](=O)[O-])o1)c1ccc(O)cc1` [NFX, (E)-4-hydroxy-N′-((5-nitrofuran-2-yl)methylene)benzohydrazide], for which, in assay [1], the “effect on the mitochondrial network after inactivation of KIF5B” value is “no longer has an effect”. Also, the “sensitivity to glutamate-induced caspase activation” value in assay [2] (CHCHD10^S59L/+ motor neurons) is given as “less sensitive”. The “effect on glutamate-induced caspase activation” value in assay [2] (control motor neurons) is “no effect”. Further, the “mitochondrial morphology and cristae shape (EM)” value in the assay on patient motor neurons is “improved”.
